{
  "source": "patent US4352792A",
  "about": "“3-Alkoxyflavone antiviral agents” (priority 1979, dated 1982)",
  "key": {"[1]": {"tested_on": "rhinovirus type 36", "assay": "in vitro antiviral spectrum", "type": "cell-based", "details": "Enterovirus, read-out: Minimum inhibitory concentration"}, "[2]": {"tested_on": "Coxsackie virus B1", "assay": "Anti-Coxsackie virus activity, lethal infection in mice", "details": "Mus musculus, 504 h, read-out: Survival"}, "[3]": {"tested_on": "rhinovirus type 30", "assay": "in vitro antiviral spectrum", "type": "cell-based", "details": "Enterovirus, read-out: Minimum inhibitory concentration"}, "[4]": {"tested_on": "rhinovirus type 32", "assay": "in vitro antiviral spectrum", "type": "cell-based", "details": "Enterovirus, read-out: Minimum inhibitory concentration"}, "[5]": {"tested_on": "rhinovirus type 47", "assay": "in vitro antiviral spectrum", "type": "cell-based", "details": "Enterovirus, read-out: Minimum inhibitory concentration"}, "[6]": {"tested_on": "rhinovirus type 34", "assay": "in vitro antiviral spectrum", "type": "cell-based", "details": "Enterovirus, read-out: Minimum inhibitory concentration"}, "[7]": {"tested_on": "rhinovirus type 14", "assay": "in vitro antiviral spectrum", "type": "cell-based", "details": "Enterovirus, read-out: Minimum inhibitory concentration"}, "[8]": {"tested_on": "ECHO virus type 12", "assay": "in vitro antiviral spectrum", "type": "cell-based", "details": "read-out: Minimum inhibitory concentration"}, "[9]": {"tested_on": "rhinoviruses HGP, 1A and Coxsackie virus B1", "assay": "Inhibition of viral replication in HeLa cells", "type": "cell-based", "details": "concentrations of 0.5 to 2 μg/ml, HeLa cells (FIG. 1)"}, "[10]": {"tested_on": "rhinovirus type 39", "assay": "in vitro antiviral spectrum", "type": "cell-based", "details": "Enterovirus, read-out: Minimum inhibitory concentration"}, "[11]": {"tested_on": "rhinovirus type 9", "assay": "in vitro antiviral spectrum", "type": "cell-based", "details": "Enterovirus, read-out: Minimum inhibitory concentration"}, "[12]": {"tested_on": "ECHO virus type 19", "assay": "in vitro antiviral spectrum", "type": "cell-based", "details": "read-out: Minimum inhibitory concentration"}, "[13]": {"tested_on": "rhinovirus type 21", "assay": "in vitro antiviral spectrum", "type": "cell-based", "details": "Enterovirus, read-out: Minimum inhibitory concentration"}, "[14]": {"tested_on": "HeLa cell", "assay": "HeLa cell growth", "type": "cell-based", "details": "0.5 to 2 μg/ml"}, "[15]": {"tested_on": "rhinovirus type 44", "assay": "in vitro antiviral spectrum", "type": "cell-based", "details": "Enterovirus, read-out: Minimum inhibitory concentration"}, "[16]": {"tested_on": "rhinovirus type 13", "assay": "in vitro antiviral spectrum", "type": "cell-based", "details": "Enterovirus, read-out: Minimum inhibitory concentration"}, "[17]": {"tested_on": "rhinovirus type 1A", "assay": "in vitro antiviral spectrum", "type": "cell-based", "details": "Enterovirus, read-out: Minimum inhibitory concentration"}, "[18]": {"tested_on": "ECHO virus type 11", "assay": "in vitro antiviral spectrum", "type": "cell-based", "details": "read-out: Minimum inhibitory concentration"}, "[19]": {"tested_on": "rhinovirus HGP", "assay": "Inhibition of viral cytopathogenic effect in HeLa cells (rhinovirus HGP)", "type": "cell-based", "details": "Enterovirus, HeLa, 48 h, read-out: IC50 rhinovirus HGP"}, "[20]": {"tested_on": "Coxsackie virus A21", "assay": "in vitro antiviral spectrum", "type": "cell-based", "details": "read-out: Minimum inhibitory concentration"}, "[21]": {"tested_on": "rhinovirus type 55", "assay": "in vitro antiviral spectrum", "type": "cell-based", "details": "Enterovirus, read-out: Minimum inhibitory concentration"}, "[22]": {"assay": "acute toxicity in mice", "details": "mouse, in vivo, day 21"}, "[23]": {"tested_on": "Coxsackie virus B1", "assay": "Inhibition of viral cytopathogenic effect in HeLa cells (Coxsackie virus B1)", "type": "cell-based", "details": "for MIC: read-out: Minimum inhibitory concentration; for IC50: HeLa, 24 h, read-out: IC50 Coxsackie virus B1"}, "[24]": {"tested_on": "rhinovirus type 17", "assay": "in vitro antiviral spectrum", "type": "cell-based", "details": "Enterovirus, read-out: Minimum inhibitory concentration"}, "[25]": {"tested_on": "rhinovirus type 2", "assay": "in vitro antiviral spectrum", "type": "cell-based", "details": "Enterovirus, read-out: Minimum inhibitory concentration"}, "[26]": {"tested_on": "rhinovirus type 26", "assay": "in vitro antiviral spectrum", "type": "cell-based", "details": "Enterovirus, read-out: Minimum inhibitory concentration"}, "[27]": {"tested_on": "rhinovirus type 16", "assay": "in vitro antiviral spectrum", "type": "cell-based", "details": "Enterovirus, read-out: Minimum inhibitory concentration"}, "[28]": {"tested_on": "ECHO virus type 9", "assay": "in vitro antiviral spectrum", "type": "cell-based", "details": "read-out: Minimum inhibitory concentration"}, "[29]": {"tested_on": "rhinovirus type 53", "assay": "in vitro antiviral spectrum", "type": "cell-based", "details": "Enterovirus, read-out: Minimum inhibitory concentration"}, "[30]": {"tested_on": "poliovirus type 1", "assay": "microbe, parasite or virus in culture", "type": "cell-based", "details": "Enterovirus C, read-out: Minimum inhibitory concentration"}, "[31]": {"tested_on": "rhinovirus type 3", "assay": "in vitro antiviral spectrum", "type": "cell-based", "details": "Enterovirus, read-out: Minimum inhibitory concentration"}, "[32]": {"tested_on": "rhinovirus type 50", "assay": "in vitro antiviral spectrum", "type": "cell-based", "details": "Enterovirus, read-out: Minimum inhibitory concentration"}, "[33]": {"tested_on": "rhinovirus type 4", "assay": "in vitro antiviral spectrum", "type": "cell-based", "details": "Enterovirus, read-out: Minimum inhibitory concentration"}},
  "note": "Read-outs that look alike come from different tables or passages of the source.",
  "data": [
    {"compound": "COc1cc(O)c2c(=O)c(OC)c(-c3ccc(O)c(OC)c3)oc2c1", "note": "[4',5-dihydroxy-3,3',7-trimethoxyflavone]", "values": [
      {"measurement": "MIC", "setting": "[1]; rhinovirus type 36", "result": 0.3, "unit": "µg/mL"},
      {"measurement": "responders at 10 mg/kg", "setting": "[2]; ip", "result": 10, "unit": "%"},
      {"measurement": "responders at 20 mg/kg", "setting": "[2]; ip", "result": 20, "unit": "%"},
      {"measurement": "responders at 20 mg/kg", "setting": "[2]; po", "result": 10, "unit": "%"},
      {"measurement": "responders at 40 mg/kg", "setting": "[2]; po", "result": 30, "unit": "%"},
      {"measurement": "MIC", "setting": "[3]; rhinovirus type 30", "result": "0.03 to 0.1", "unit": "µg/mL"},
      {"measurement": "MIC", "setting": "[4]; rhinovirus type 32", "result": 0.1, "unit": "µg/mL"},
      {"measurement": "MIC", "setting": "[5]; rhinovirus type 47", "result": 0.3, "unit": "µg/mL"},
      {"measurement": "MIC", "setting": "[6]; rhinovirus type 34", "result": 0.3, "unit": "µg/mL"},
      {"measurement": "MIC", "setting": "[7]; rhinovirus type 14", "result": 0.1, "unit": "µg/mL"},
      {"measurement": "MIC", "setting": "[8]", "result": "0.1 to 0.3", "unit": "µg/mL"},
      {"measurement": "reduction of viral replication", "setting": "[9]", "result": "reduces the viral replication quite considerably"},
      {"measurement": "MIC", "setting": "[10]; rhinovirus type 39", "result": 0.1, "unit": "µg/mL"},
      {"measurement": "MIC", "setting": "[11]; rhinovirus type 9", "result": 0.1, "unit": "µg/mL"},
      {"measurement": "MIC", "setting": "[12]", "result": "0.1 to 0.3", "unit": "µg/mL"},
      {"measurement": "MIC", "setting": "[13]; rhinovirus type 21", "result": 0.3, "unit": "µg/mL"},
      {"measurement": "effect on HeLa cell growth", "setting": "[14]", "result": "HeLa cell growth is not affected"},
      {"measurement": "MIC", "setting": "[15]; rhinovirus type 44", "result": "0.05 to 0.5", "unit": "µg/mL"},
      {"measurement": "MIC", "setting": "[16]; rhinovirus type 13", "result": "0.3 to 1", "unit": "µg/mL"},
      {"measurement": "MIC", "setting": "[17]; rhinovirus type 1A", "result": 0.03, "unit": "µg/mL"},
      {"measurement": "MIC", "setting": "[18]", "result": "0.1 to 0.3", "unit": "µg/mL"},
      {"measurement": "IC50", "setting": "[19]", "result": 0.1, "unit": "µg/mL"},
      {"measurement": "MIC", "setting": "[20]", "result": "0.1 to 0.3", "unit": "µg/mL"},
      {"measurement": "MIC", "setting": "[21]; rhinovirus type 55", "result": 0.3, "unit": "µg/mL"},
      {"measurement": "LD50 at 504 h", "setting": "[22]; ip, single dose i.p., dissolved in dimethyl sulfoxide, read-out: LD50 i.p.", "result": "> 1000", "unit": "mg/kg"},
      {"measurement": "LD50 at 504 h", "setting": "[22]; po, single dose p.o., suspended in 0.5% carboxymethylcellulose, read-out: LD50 p.o.", "result": "> 5000", "unit": "mg/kg"},
      {"measurement": "MIC", "setting": "[23]; Coxsackie virus B1", "result": "0.1 to 0.2", "unit": "µg/mL"},
      {"measurement": "IC50", "setting": "[23]", "result": "0.1 to 0.2", "unit": "µg/mL"},
      {"measurement": "MIC", "setting": "[24]; rhinovirus type 17", "result": 0.3, "unit": "µg/mL"},
      {"measurement": "MIC", "setting": "[25]; rhinovirus type 2", "result": 0.1, "unit": "µg/mL"},
      {"measurement": "MIC", "setting": "[26]; rhinovirus type 26", "result": 0.3, "unit": "µg/mL"},
      {"measurement": "MIC", "setting": "[27]; rhinovirus type 16", "result": 0.3, "unit": "µg/mL"},
      {"measurement": "MIC", "setting": "[28]", "result": "0.1 to 0.3", "unit": "µg/mL"},
      {"measurement": "MIC", "setting": "[29]; rhinovirus type 53", "result": 0.1, "unit": "µg/mL"},
      {"measurement": "MIC", "setting": "[30]", "result": "0.1 to 0.3", "unit": "µg/mL"},
      {"measurement": "MIC", "setting": "[31]; rhinovirus type 3", "result": 0.1, "unit": "µg/mL"},
      {"measurement": "MIC", "setting": "[32]; rhinovirus type 50", "result": 0.3, "unit": "µg/mL"},
      {"measurement": "MIC", "setting": "[33]; rhinovirus type 4", "result": 1, "unit": "µg/mL"}
    ]},
    {"compound": "COc1cc(O)c2c(=O)c(OC)c(-c3ccc(O)cc3)oc2c1", "note": "[4',5-dihydroxy-3,7-dimethoxyflavone]", "values": [
      {"measurement": "MIC", "setting": "[1]", "result": 0.3, "unit": "µg/mL"},
      {"measurement": "MIC", "setting": "[3]", "result": 0.1, "unit": "µg/mL"},
      {"measurement": "MIC", "setting": "[4]", "result": 0.3, "unit": "µg/mL"},
      {"measurement": "MIC", "setting": "[5]", "result": 0.3, "unit": "µg/mL"},
      {"measurement": "MIC", "setting": "[6]", "result": 0.3, "unit": "µg/mL"},
      {"measurement": "MIC", "setting": "[7]", "result": 0.3, "unit": "µg/mL"},
      {"measurement": "MIC", "setting": "[10]", "result": 0.3, "unit": "µg/mL"},
      {"measurement": "MIC", "setting": "[11]", "result": 0.3, "unit": "µg/mL"},
      {"measurement": "MIC", "setting": "[13]", "result": 0.3, "unit": "µg/mL"},
      {"measurement": "MIC", "setting": "[15]", "result": 0.5, "unit": "µg/mL"},
      {"measurement": "MIC", "setting": "[16]", "result": "0.3 to 1", "unit": "µg/mL"},
      {"measurement": "MIC", "setting": "[17]", "result": 0.03, "unit": "µg/mL"},
      {"measurement": "IC50", "setting": "[19]", "result": 0.1, "unit": "µg/mL"},
      {"measurement": "MIC", "setting": "[21]", "result": "0.1 to 0.3", "unit": "µg/mL"},
      {"measurement": "IC50", "setting": "[23]", "result": 0.1, "unit": "µg/mL"},
      {"measurement": "MIC", "setting": "[23]", "result": 0.1, "unit": "µg/mL"},
      {"measurement": "MIC", "setting": "[24]", "result": 0.1, "unit": "µg/mL"},
      {"measurement": "MIC", "setting": "[25]", "result": 0.1, "unit": "µg/mL"},
      {"measurement": "MIC", "setting": "[26]", "result": 0.3, "unit": "µg/mL"},
      {"measurement": "MIC", "setting": "[27]", "result": "0.3 to 1", "unit": "µg/mL"},
      {"measurement": "MIC", "setting": "[29]", "result": 0.3, "unit": "µg/mL"},
      {"measurement": "MIC", "setting": "[31]", "result": 0.3, "unit": "µg/mL"},
      {"measurement": "MIC", "setting": "[32]", "result": 0.3, "unit": "µg/mL"},
      {"measurement": "MIC", "setting": "[33]", "result": "0.3 to 1", "unit": "µg/mL"}
    ]}
  ]
}
